Data: patent US11214803B2, “Modulators of YAP1 expression” (Ionis Pharmaceuticals, Inc., priority 2019, dated 2022)
Strand notation (5' to 3'): a small letter for the sugar, then the base; units joined by * are phosphorothioate-linked, units joined directly phosphodiester-linked; [ ] holds rarer units or linkages, { } end groups; capitals alone tell only the bases. k = constrained ethyl (cEt); [5mC] = 5-methylcytosine; d = 2'-deoxy (DNA)

Assays:
Yap1 mRNA [1] = assay: Yap1 mRNA in BICR56 cells, RNA analysis (Example 33); format: cell-based, human; settings: free uptake, approximately 48 hours
Description: Modified oligonucleotides described in the studies above were tested at various doses in squamous cell carcinoma adherent keratinocyte cell line BICR56. A control oligonucleotide 792169 was also tested.
(§1) Cultured BICR56 cells at a density of 5000 cells per well were treated using free uptake with modified oligonucleotides diluted to concentrations described in the tables below. After approximately 48 hours, Yap1 mRNA levels were measured as previously described using the Human Yap1 primer-probe set RTS4814. Yap1 mRNA levels were normalized to actin-beta content, as measured by primer probe set RTS5002. Results are presented in the tables below as percent control of the amount of Yap1 mRNA relative to untreated control cells (% UTC).

CAL33 cells = assay: Cell proliferation assay in CAL33 cells, CellTiter-Glo (Example 36); format: cell-based, human; settings: free uptake, approximately 144 hours
Description: Modified oligonucleotides described in the studies above were tested at various doses in tongue squamous cell carcinoma line CAL33. A control oligonucleotide 792169, described herein above, was also tested.
(§2) Cultured CAL33 cells at a density of 1000 cells/well were treated using free uptake with modified oligonucleotides diluted to concentrations described in the tables below. After approximately 144 hours, cell proliferation was measured using the luminescent cell viability CellTiter-Glo® 2.0 Assay (Promega). Results are presented in the tables below as percent control of the amount of luminescence in samples treated with modified oligonucleotides relative to untreated control cells (% UTC).

Detroit-562 cells = assay: Cell proliferation assay in Detroit-562 cells, CellTiter-Glo (Example 38); format: cell-based, human; settings: free uptake, approximately 144 hours
Description: Modified oligonucleotides described in the studies above were tested at various doses in pharynx carcinoma cell line Detroit-562. A control oligonucleotide 792169, described herein above, was also tested.
as §2, with “Detroit-562” for “CAL33”

Yap1 mRNA [2] = assay: Yap1 mRNA in SCC-9 cells, RNA analysis (Example 40); format: cell-based, human; settings: free uptake, approximately 48 hours
Description: (§3) Modified oligonucleotides described in the studies above were tested at various doses in tongue squamous cell carcinoma cell line SCC-9. A control oligonucleotide 792169, described herein above, was also tested.
as §1, with “SCC-9” for “BICR56”

SCC-9 cells = assay: Cell proliferation assay in SCC-9 cells, CellTiter-Glo (Example 40); format: cell-based, human; settings: free uptake, approximately 144 hours
Description: as §3
as §2, with “SCC-9” for “CAL33”

SNU-899 cells = assay: Cell proliferation assay in SNU-899 cells, CellTiter-Glo (Example 43); format: cell-based, human; settings: free uptake, approximately 144 hours
Description: Modified oligonucleotides described in the studies above were tested at various doses in laryngeal squamous cell carcinoma cell line SNU-899. A control oligonucleotide 792169, described herein above, was also tested.
as §2, with “SNU-899” for “CAL33”

Yap1 mRNA [3] = assay: Yap1 mRNA in SNU-1214 cells, RNA analysis (Example 46); format: cell-based, human; settings: free uptake, approximately 48 hours
Description: Modified oligonucleotides described in the studies above were tested at various doses in laryngeal squamous cell carcinoma cell line […]. A control oligonucleotide 792169, described herein above, was also tested.
as §1, with “SNU-1214” for “BICR56”

CAL33 xenograft tumor = assay: Tumor volume and tumor weight in CAL33 xenograft tumor model (Example 29); format: in vivo, human; settings: 50 mg/kg twice weekly for two weeks; for Average Tumor weight: CAL33 xenograft mice, end of study; for Average Tumor Volume: CAL33 xenografts
Description: A xenograft tumor model was used to evaluate activity of modified oligonucleotides targeted to human Yap1. One million CAL33 cells in 30% matrigel were implanted subcutaneously into the flanks of female CrTac:NCr-Foxnlnu (Taconic) mice. When tumors reached an average volume of 100 mm^3, approximately two weeks post-implantation, groups of eight mice were administered at 50 mg/kg twice weekly with modified oligonucleotides for two weeks. ION 792169 was administered as a control.
Tumor volume was measured at the indicated days in the table below. Tumor weight was determined at end of study. Mice were sacrificed when tumors from PBS-treated mice reached 2,000 mm3.

Substance	human Yap1 mRNA expression (Yap1 mRNA [1]; 0.04 μM)	human Yap1 mRNA expression (Yap1 mRNA [1]; 0.2 μM)	human Yap1 mRNA expression (Yap1 mRNA [1]; 1 μM)	human Yap1 mRNA expression (Yap1 mRNA [1]; 5 μM)	Antiproliferative effect (cell proliferation, luminescence) (CAL33 cells; 0.04 μM)	Antiproliferative effect (cell proliferation, luminescence) (CAL33 cells; 0.2 μM)	Antiproliferative effect (cell proliferation, luminescence) (CAL33 cells; 1 μM)	Antiproliferative effect (cell proliferation, luminescence) (CAL33 cells; 5 μM)	Antiproliferative effect (cell proliferation, luminescence) (Detroit-562 cells; 0.04 μM)	Antiproliferative effect (cell proliferation, luminescence) (Detroit-562 cells; 0.2 μM)	Antiproliferative effect (cell proliferation, luminescence) (Detroit-562 cells; 1 μM)	Antiproliferative effect (cell proliferation, luminescence) (Detroit-562 cells; 5 μM)	human Yap1 mRNA expression (Yap1 mRNA [2]; 0.04 μM)	human Yap1 mRNA expression (Yap1 mRNA [2]; 0.2 μM)	human Yap1 mRNA expression (Yap1 mRNA [2]; 1 μM)	human Yap1 mRNA expression (Yap1 mRNA [2]; 5 μM)	Antiproliferative effect (cell proliferation, luminescence) (SCC-9 cells; 0.04 μM)	Antiproliferative effect (cell proliferation, luminescence) (SCC-9 cells; 0.2 μM)	Antiproliferative effect (cell proliferation, luminescence) (SCC-9 cells; 1 μM)	Antiproliferative effect (cell proliferation, luminescence) (SCC-9 cells; 5 μM)	other results
715487 (kA*kT*kT*dA*d[5mC]*dT*dT*d[5mC]*dA*dT*dA*dG*d[5mC]*kT*kT*kA) [compound 715487]	68 % UTC	28 % UTC	16 % UTC	11 % UTC	89 % UTC	79 % UTC	61 % UTC	37 % UTC	92 % UTC	84 % UTC	71 % UTC	52 % UTC	74 % UTC	44 % UTC	21 % UTC	11 % UTC	97 % UTC	73 % UTC	51 % UTC	34 % UTC	Antiproliferative effect (cell proliferation, luminescence) (SNU-899 cells; 0.04 μM): 82 % UTC; Antiproliferative effect (cell proliferation, luminescence) (SNU-899 cells; 0.2 μM): 78 % UTC; Antiproliferative effect (cell proliferation, luminescence) (SNU-899 cells; 1 μM): 71 % UTC; Antiproliferative effect (cell proliferation, luminescence) (SNU-899 cells; 5 μM): 62 % UTC; human Yap1 mRNA expression (Yap1 mRNA [3]; 0.04 μM): 71 % UTC; human Yap1 mRNA expression (Yap1 mRNA [3]; 0.2 μM): 36 % UTC; human Yap1 mRNA expression (Yap1 mRNA [3]; 1 μM): 16 % UTC; human Yap1 mRNA expression (Yap1 mRNA [3]; 5 μM): 9 % UTC
1198728 (TATTAGAGTATGTGGC; modified gapmer, further chemistry not given here) [compound 1198728]	–	–	–	–	–	–	–	–	–	–	–	–	–	–	–	–	–	–	–	–	Average Tumor weight (CAL33 xenograft tumor): 0.88 g; Average Tumor Volume (CAL33 xenograft tumor; day 10 post-implantation): 113 mm^3; Average Tumor Volume (CAL33 xenograft tumor; day 13 post-implantation): 253 mm^3; Average Tumor Volume (CAL33 xenograft tumor; day 17 post-implantation): 423 mm^3; Average Tumor Volume (CAL33 xenograft tumor; day 21 post-implantation): 621 mm^3; Average Tumor Volume (CAL33 xenograft tumor; day 24 post-implantation): 835 mm^3; Average Tumor Volume (CAL33 xenograft tumor; day 27 post-implantation): 988 mm^3; Average Tumor Volume (CAL33 xenograft tumor; day 31 post-implantation): 1123 mm^3; Average Tumor Volume (CAL33 xenograft tumor; day 34 post-implantation): 1233 mm^3; Average Tumor Volume (CAL33 xenograft tumor; day 38 post-implantation): 1239 mm^3; Average Tumor Volume (CAL33 xenograft tumor; day 40 post-implantation): 1277 mm^3; Average Tumor Volume (CAL33 xenograft tumor; day 44 post-implantation): 1277 mm^3
1198440 (AAGTGTATGTCAGAAG; cEt, 2'-MOE, 5-methylcytosine, phosphorothioate modifications, further chemistry not given here) [compound 1198440]	40 % UTC	10 % UTC	7 % UTC	7 % UTC	84 % UTC	67 % UTC	58 % UTC	44 % UTC	84 % UTC	67 % UTC	59 % UTC	45 % UTC	53 % UTC	18 % UTC	6 % UTC	2 % UTC	88 % UTC	46 % UTC	35 % UTC	31 % UTC	Average Tumor weight (CAL33 xenograft tumor): 0.36 g; Average Tumor Volume (CAL33 xenograft tumor; day 10 post-implantation): 115 mm^3; Average Tumor Volume (CAL33 xenograft tumor; day 13 post-implantation): 279 mm^3; Average Tumor Volume (CAL33 xenograft tumor; day 17 post-implantation): 376 mm^3; Average Tumor Volume (CAL33 xenograft tumor; day 21 post-implantation): 574 mm^3; Average Tumor Volume (CAL33 xenograft tumor; day 24 post-implantation): 651 mm^3; Average Tumor Volume (CAL33 xenograft tumor; day 27 post-implantation): 818 mm^3; Average Tumor Volume (CAL33 xenograft tumor; day 31 post-implantation): 888 mm^3; Average Tumor Volume (CAL33 xenograft tumor; day 34 post-implantation): 857 mm^3; Average Tumor Volume (CAL33 xenograft tumor; day 38 post-implantation): 770 mm^3; Average Tumor Volume (CAL33 xenograft tumor; day 40 post-implantation): 746 mm^3; Average Tumor Volume (CAL33 xenograft tumor; day 44 post-implantation): 834 mm^3; Antiproliferative effect (cell proliferation, luminescence) (SNU-899 cells; 0.04 μM): 82 % UTC; Antiproliferative effect (cell proliferation, luminescence) (SNU-899 cells; 0.2 μM): 75 % UTC; Antiproliferative effect (cell proliferation, luminescence) (SNU-899 cells; 1 μM): 69 % UTC; Antiproliferative effect (cell proliferation, luminescence) (SNU-899 cells; 5 μM): 66 % UTC; human Yap1 mRNA expression (Yap1 mRNA [3]; 0.04 μM): 40 % UTC; human Yap1 mRNA expression (Yap1 mRNA [3]; 0.2 μM): 11 % UTC; human Yap1 mRNA expression (Yap1 mRNA [3]; 1 μM): 4 % UTC; human Yap1 mRNA expression (Yap1 mRNA [3]; 5 μM): 3 % UTC
